Results as given in patent publication US6172205A, “Synthetic process toward total synthesis of eleutherobin and its analogues and uses thereof” (The Trustees of Columbia in the City of New York, priority 1998, dated 2001).

Tested on: cellular microtubules, NIH 3T3 cells
Test: Microtubule bundle formation by immunofluorescence
Type: cell-based
Details: 2 μM, 5.5 h
Protocol: FIG. 9 immunofluorescence images NIH3T3 cells labeled with β-tubulin antibody following exposure to different drugs. A)DMSO; B)2 μM Taxol; C)2 μM eleutherobin; D)2 μM neo-eleutherobin; E)2 μM SKBII.294; F)2 μM SKBIII.13.
Illustrates the effects of eleutherobin and its derivatives on the morphology of cellular microtubules following exposure of cells to 2 μM of each compound for 5.5 h at 37° C. […] The number of micotic asters correlated with the extent of microtubule bundling in interphase cells.
NIH 3T3 cells were grown to subconfluency on glass converslips in 35 mm plastic petri dishes. Cells were exposed to 2 μM of Taxol and each of the experimental compounds for 5.5 h at 37° C., rinsed twice in PBS and extracted with 0.5% Triton-X-100 in microtubule stabilizing buffer (PEM) (100 mM PIPES, 2 mM EGTA and 2 mM MgCl2, pH 6.8) for 4 min. Following a wash in PEM, the cells were fixed for 40 min at room temperature in 3% formaldehyde in PEM followed by incubation in 0.1 M glycine in PBS for 10 min and washing (four times) in PEM containing 5 μM EGTA. Following blocking in 20% normal goat serum (NGS) for 30 min at room temperature, cells were incubated for 1 h at 37° C. with a 1:100 dilution of β-tubulin mAb diluted in 10% NGS, washed twice in 1% BSA, once in PBS and three times in 1% BSA. Cells were then incubated in a 1:200 dilution of the secondary fluorophore antibody, IndocarbocyanineCY3 (Jackson Immunoresearch Laboratories Inc., Pa.) in 20% NGS for 20 min at room temperature. Finally cells were washed three times in 1% BSA and the dried slides mounted in 30% glycerol in PBS containing […]-phenylene diamine (1 mg/ml). Fixed slides were examined using a Zeiss Axioskop microscope.

## CO[C@]12C=C[C@](C)(O1)[C@@H](OC(=O)/C=C/c1cn(C)cn1)C[C@H]1C(C)=CC[C@H](C(C)C)[C@H]1/C=C\2CO[C@@H]1OC[C@@H](O)[C@@H](O)[C@@H]1OC(C)=O [Eleutherobin]
37 °C
  microtubule bundle formation (in words): extensive microtubule bundling
Data not shown
  multiple asters in mitotic cells: also seen in eleutherobin and neo-eleutherobin-treated cells
